The assay addresses T1, rat lenses aldose reductase (Rattus norvegicus, UniProt P07943).
T1 construct: The supernatant fraction of the rat lens homogenate was prepared in accordance with the procedure described in literature; from tissue; host or cells: lens of SD rats
The assay is described as follows: Inhibitory effect on rat lens aldose reductase activity in vitro. The conditions noted are these: for IC50: rat lens aldose reductase, DL-glyceraldehyde substrate, NADPH decrease at 340 nm. The class given is biochemical. The method, then: Crude aldose reductase (AR) was prepared as follows: rat lense were removed from SD rats weighing 250-280 g and frozen until use. The supernatant fraction of the rat lens homogenate was prepared in accordance with the procedure described in literature (Hayman, S. & Kinoshita, J. H.; J. Biol. Chem., 240, pp 877-882, 1965). Partially purified enzyme with a specific activity of 6.5 U/mg was routinely used to rest enzyme inhibition.
(2) Measurement of Aldose Reductase Activity AR activity was assayed spectrophotometrically by measuring the decrease in absorption of NADPH at 340 nm over a 5 min with DL-glyceraldehyde as a substrate (Sato, S and Kador, P. F., Biochem. Pharmacol., 40, pp 1033-1042, 1990). Each 1.0 ml of cuvette containing equal units of enzyme, 0.10M sodium phospate buffer (pH 6.2), 0.3 mM NADPH with or without 10 mM substrate and the enzyme inhibitor. The concentration of inhibitors giving 50% inhibition of enzyme activity (IC50) was calculated from the lease-squares regression line of the logarithmic concentration plotted against the remaining activity.

The record followed here is patent US7595055B2, “Pharmaceutical composition comprising an extract or compounds isolated from Elfvingia applanata for the prevention and the treatment of diabetes and diabetic complications” (priority 2003, dated 2009).

Where two headings read alike, the source gives them in different places.

As for `O=C(O)c1cc(O)ccc1O` [2,5-dihydroxybenzoic acid, 2,5-dihydroxy benzoic acid], the IC50 (read-out: IC50 (converted)) is 256 µM.
On the same count and under the same terms, as for `CCCCCCCC[C@@H](O)C(=O)N[C@@H](CO[C@@H]1OC(CO)[C@@H](O)C(O)C1O)[C@H](O)/C=C/CC/C=C(\C)CCCC` (stereo partly shown) [Cerebroside], the figure is 52.3 µM.
On the same count and under the same terms, as for `O=Cc1ccc(O)c(O)c1` [Protocatechualdehyde, protocatechualdehyde], the figure is 5.21 µM.
The compound `O=C(O)CC1(CC(=O)O)CCCC1` [TMG, tetramethylene glutaric acid] yielded an IC50 of 0.63 µg/mL. Besides, the “inhibition (%)” value (Concentration 0.1 (unit not given)) is given as 29.8%. In addition, the “inhibition (%)” value (Concentration 1 (unit not given)) was determined as 53.7%. For the same compound, where the note is “Concentration 10 (unit not given)”, the “inhibition (%)” value worked out at 82.1%.

One may read the IC50 as the point on the concentration scale where inhibition reaches its midpoint.
